Data from ChEMBL document CHEMBL3112491, “3-(5-)-Amino-o-diarylisoxazoles: regioselective synthesis and antitubulin activity” (2014).
Activity calls are given as the source filed them. The calls are words filed in the database; no cut-off is given here.

Tests used:
Paracentrotus lividus [1] = assay: Microtubule destabilizing activity in sea urchin free-swimming blastula assessed as embryo spinning treated at 9 to 10 hrs post-fertilization measured after 0.15 to 15 hrs; type: functional
Paracentrotus lividus [2] = assay: Antimitotic activity in sea urchin fertilized egg assessed as cleavage arrest treated at 8 to 20 mins post-fertilization measured at 2.5 to 5.5 hrs post-fertilization; type: functional
Paracentrotus lividus [3] = assay: Antimitotic activity in sea urchin fertilized egg assessed as cleavage alteration treated at 8 to 20 mins post-fertilization measured at 2.5 to 5.5 hrs post-fertilization; type: functional
Paracentrotus lividus [4] = assay: Microtubule destabilizing activity in sea urchin free-swimming blastula assessed as embryo spinning up to 4 uM treated at 9 to 10 hrs post-fertilization measured after 0.15 to 15 hrs; type: functional, organism-based
SN12C = assay: Growth inhibition of human SN12C cells after 48 hrs by sulforhodamine B assay; type: functional
TK-10 = assay: Growth inhibition of human TK10 cells after 48 hrs by sulforhodamine B assay; type: functional; settings: TK-10, 48 h
[5] = Growth inhibition of human RXF393 cells after 48 hrs by sulforhodamine B assay; type: functional; settings: RXF 393, 48 h
A498 = assay: Growth inhibition of human A498 cells after 48 hrs by sulforhodamine B assay; type: functional; settings: A498, 48 h
ACHN = assay: Growth inhibition of human ACHN cells after 48 hrs by sulforhodamine B assay; type: functional
786-0 = assay: Growth inhibition of human 786-0 cells after 48 hrs by sulforhodamine B assay; type: functional; settings: 786-0, 48 h
SK-OV-3 = assay: Growth inhibition of human SKOV3 cells after 48 hrs by sulforhodamine B assay; type: functional; settings: SK-OV-3, 48 h
OVCAR-8 = assay: Growth inhibition of human OVCAR8 cells after 48 hrs by sulforhodamine B assay; type: functional; settings: OVCAR-8, 48 h
[6] = Growth inhibition of human NCI-ADR-RES cells after 48 hrs by sulforhodamine B assay; type: functional
[7] = Growth inhibition of human OVCAR5 cells after 48 hrs by sulforhodamine B assay; type: functional; settings: OVCAR-5, 48 h
IGROV-1 = assay: Growth inhibition of human IGROV1 cells after 48 hrs by sulforhodamine B assay; type: functional; settings: IGROV-1, 48 h
OVCAR-3 = assay: Growth inhibition of human OVCAR3 cells after 48 hrs by sulforhodamine B assay; type: functional; settings: OVCAR-3, 48 h
UACC-62 = assay: Growth inhibition of human UACC62 cells after 48 hrs by sulforhodamine B assay; type: functional; settings: UACC-62, 48 h
SK-MEL-28 = assay: Growth inhibition of human SK-MEL-28 cells after 48 hrs by sulforhodamine B assay; type: functional; settings: SK-MEL-28, 48 h
SK-MEL-2 = assay: Growth inhibition of human SK-MEL-2 cells after 48 hrs by sulforhodamine B assay; type: functional; settings: SK-MEL-2, 48 h
LOX IMVI = assay: Growth inhibition of human LOXIMVI cells after 48 hrs by sulforhodamine B assay; type: functional
U-251 = assay: Growth inhibition of human U251 cells after 48 hrs by sulforhodamine B assay; type: functional; settings: U-251, 48 h
[8] = Growth inhibition of human SF539 cells after 48 hrs by sulforhodamine B assay; type: functional; settings: SF-539, 48 h
SNB-19 = assay: Growth inhibition of human SNB19 cells after 48 hrs by sulforhodamine B assay; type: functional; settings: SNB-19, 48 h
SF-295 = assay: Growth inhibition of human SF295 cells after 48 hrs by sulforhodamine B assay; type: functional; settings: SF-295, 48 h
SF-268 = assay: Growth inhibition of human SF268 cells after 48 hrs by sulforhodamine B assay; type: functional; settings: SF-268, 48 h
SW-620 = assay: Growth inhibition of human SW620 cells after 48 hrs by sulforhodamine B assay; type: functional; settings: SW-620, 48 h
KM12 = assay: Growth inhibition of human KM12 cells after 48 hrs by sulforhodamine B assay; type: functional; settings: KM12, 48 h
HT-29 = assay: Growth inhibition of human HT-29 cells after 48 hrs by sulforhodamine B assay; type: functional; settings: HT-29, 48 h
HCT-15 = assay: Growth inhibition of human HCT15 cells after 48 hrs by sulforhodamine B assay; type: functional; settings: HCT-15, 48 h
HCT-116 = assay: Growth inhibition of human HCT116 cells after 48 hrs by sulforhodamine B assay; type: functional; settings: HCT-116, 48 h
[9] = Growth inhibition of human HCC2998 cells after 48 hrs by sulforhodamine B assay; type: functional; settings: HCC 2998, 48 h
COLO 205 = assay: Growth inhibition of human COLO205 cells after 48 hrs by sulforhodamine B assay; type: functional; settings: COLO 205, 48 h
NCI-H522 = assay: Growth inhibition of human NCI-H522 cells after 48 hrs by sulforhodamine B assay; type: functional; settings: NCI-H522, 48 h
NCI-H460 = assay: Growth inhibition of human NCI-H460 cells after 48 hrs by sulforhodamine B assay; type: functional; settings: NCI-H460, 48 h
NCI-H322M = assay: Growth inhibition of human NCI-H322M cells after 48 hrs by sulforhodamine B assay; type: functional
NCI-H226 = assay: Growth inhibition of human NCI-H226 cells after 48 hrs by sulforhodamine B assay; type: functional; settings: NCI-H226, 48 h
HOP-62 = assay: Growth inhibition of human HOP62 cells after 48 hrs by sulforhodamine B assay; type: functional; settings: HOP-62, 48 h
[10] = Growth inhibition of human HOP92 cells after 48 hrs by sulforhodamine B assay; type: functional; settings: HOP-92, 48 h
[11] = Growth inhibition of human EKVX cells after 48 hrs by sulforhodamine B assay; type: functional
RPMI-8226 = assay: Growth inhibition of human RPMI8226 cells after 48 hrs by sulforhodamine B assay; type: functional; settings: RPMI-8226, 48 h
SR = assay: Growth inhibition of human SR cells after 48 hrs by sulforhodamine B assay; type: functional
MOLT-4 = assay: Growth inhibition of human MOLT4 cells after 48 hrs by sulforhodamine B assay; type: functional; settings: MOLT-4, 48 h
HL-60(TB) = assay: Growth inhibition of human HL-60(TB) cells after 48 hrs by sulforhodamine B assay; type: functional; settings: HL-60, 48 h
CCRF-CEM = assay: Growth inhibition of human CCRF-CEM cells after 48 hrs by sulforhodamine B assay; type: functional

## COc1ccc(-c2c(-c3cc(OC)c4c(c3OC)OCO4)noc2N)cc1
Paracentrotus lividus [1]
  EC: >5 µM
Paracentrotus lividus [2]
  EC: >5 µM
Paracentrotus lividus [3]
  EC: 2 µM

## COc1ccc(-c2noc(N)c2-c2cc(OC)c3c(c2OC)OCO3)cc1
Paracentrotus lividus [1]
  EC: >4 µM
Paracentrotus lividus [2]
  EC: >4 µM
Paracentrotus lividus [3]
  EC: 4 µM

## COc1ccc(-c2noc(N)c2-c2cc(OC)c(OC)c(OC)c2)cc1
Paracentrotus lividus [1]
  EC: 0.1 µM
Paracentrotus lividus [2]
  EC: 0.01 µM
Paracentrotus lividus [3]
  EC: 0.002 µM

## COc1ccc(-c2onc(N)c2-c2cc(OC)c(OC)c(OC)c2)cc1
Paracentrotus lividus [1]
  EC: 0.2 µM
Paracentrotus lividus [2]
  EC: 0.02 µM
Paracentrotus lividus [3]
  EC: 0.004 µM

## COc1ccc(-c2c(-c3cc(OC)c(OC)c(OC)c3)noc2N(C(C)=O)C(C)=O)cc1
Paracentrotus lividus [1]
  EC: 1 µM
Paracentrotus lividus [2]
  EC: 0.2 µM
Paracentrotus lividus [3]
  EC: 0.05 µM

## COc1ccc(-c2c(-c3cc(OC)c4c(c3)OCO4)noc2N(C(C)=O)C(C)=O)cc1
Paracentrotus lividus [1]
  EC: 0.5 µM
Paracentrotus lividus [2]
  EC: 0.1 µM
Paracentrotus lividus [3]
  EC: 0.02 µM

## COc1ccc(Cc2noc(-c3ccc([N+](=O)[O-])cc3)n2)cc1
Paracentrotus lividus [4]
  Activity: inactive

## COc1ccc(-c2c(NC(C)=O)noc2-c2cccc(OC)c2)cc1
Paracentrotus lividus [1]
  EC: >4 µM
Paracentrotus lividus [2]
  EC: >4 µM
Paracentrotus lividus [3]
  EC: >4 µM

## COc1ccc(-c2c(-c3cc(OC)c4c(c3OC)OCO4)noc2N(C(C)=O)C(C)=O)cc1
Paracentrotus lividus [1]
  EC: 5 µM
Paracentrotus lividus [2]
  EC: 2 µM
Paracentrotus lividus [3]
  EC: 0.5 µM

## COc1ccc(-c2noc(N)c2-c2cc3c(c(OC)c2OC)OCO3)cc1
Paracentrotus lividus [1]
  EC: >4 µM
Paracentrotus lividus [2]
  EC: >4 µM
Paracentrotus lividus [3]
  EC: >4 µM

## COc1ccc(-c2onc(N)c2-c2cc(OC)c3c(c2OC)OCO3)cc1
Paracentrotus lividus [1]
  EC: >4 µM
Paracentrotus lividus [2]
  EC: >4 µM
Paracentrotus lividus [3]
  EC: >4 µM

## COc1ccc(-c2nc(CCc3cc(OC)c(OC)c(OC)c3)no2)cc1
Paracentrotus lividus [4]
  Activity: inactive

## COc1ccc(Cc2noc(-c3cc(OC)c4c(c3OC)OCO4)n2)cc1
Paracentrotus lividus [4]
  Activity: inactive

## COc1ccc(Cc2noc(-c3cc4c(c(OC)c3OC)OCO4)n2)cc1
Paracentrotus lividus [4]
  Activity: inactive

## COc1ccc(-c2onc(NC(C)=O)c2-c2cc(OC)c(OC)c(OC)c2)cc1
Paracentrotus lividus [1]
  EC: >4 µM
Paracentrotus lividus [2]
  EC: >4 µM
Paracentrotus lividus [3]
  EC: >4 µM

## COc1ccc(/C=C\c2cc(OC)c(OC)c(OC)c2)cc1O [COMBRETASTATIN A4]
SN12C
  GI50: 5.98 nM
TK-10
  GI50: 100 nM
[5]
  GI50: 2.37 nM
A498
  GI50: 6.11 nM
ACHN
  GI50: 6.14 nM
786-0
  GI50: 100 nM
SK-OV-3
  GI50: 58.9 nM
OVCAR-8
  GI50: 2.99 nM
[6]
  GI50: 1 nM
[7]
  GI50: 100 nM
IGROV-1
  GI50: 14.6 nM
OVCAR-3
  GI50: 2.1 nM
UACC-62
  GI50: 5.51 nM
SK-MEL-28
  GI50: 8.07 nM
SK-MEL-2
  GI50: 4.37 nM
LOX IMVI
  GI50: 3.25 nM
U-251
  GI50: 4.03 nM
[8]
  GI50: 2.54 nM
SNB-19
  GI50: 3.85 nM
SF-295
  GI50: 3.87 nM
SF-268
  GI50: 5.7 nM
SW-620
  GI50: 3.04 nM
KM12
  GI50: 4.99 nM
HT-29
  GI50: 100 nM
HCT-15
  GI50: 3.66 nM
HCT-116
  GI50: 3.28 nM
[9]
  GI50: 63.4 nM
COLO 205
  GI50: 100 nM
NCI-H522
  GI50: 2.18 nM
NCI-H460
  GI50: 3.11 nM
NCI-H322M
  GI50: 7.45 nM
NCI-H226
  GI50: 3.81 nM
HOP-62
  GI50: 2.65 nM
[10]
  GI50: 2.73 nM
[11]
  GI50: 85.7 nM
RPMI-8226
  GI50: 3.42 nM
SR
  GI50: 2.99 nM
MOLT-4
  GI50: 3.27 nM
HL-60(TB)
  GI50: 2.16 nM
CCRF-CEM
  GI50: 2.62 nM
Paracentrotus lividus [1]
  EC: 0.05 µM
Paracentrotus lividus [2]
  EC: 0.01 µM
Paracentrotus lividus [3]
  EC: 0.002 µM

## COc1ccc(C(=O)Nc2noc(-c3ccc(OC)cc3)c2-c2cc(OC)c(OC)c(OC)c2)cc1
Paracentrotus lividus [1]
  EC: >4 µM
Paracentrotus lividus [2]
  EC: >4 µM
Paracentrotus lividus [3]
  EC: >4 µM
